From PMC12711018, “Structural flexibility of the nicotinamide group of NADH in butanol dehydrogenase YqdH from Fusobacterium nucleatum” (PLOS One, 2025)

Target: T1, FnYqdH (butanol dehydrogenase YqdH) (Fusobacterium nucleatum, UniProt Q8R612)
T1 construct: gene FN1415; recombinant from pPRO-EX-HTA in E. coli BL21 (DE3); His6 tag removed with TEV protease
T1 sequence (Q8R612 1-385): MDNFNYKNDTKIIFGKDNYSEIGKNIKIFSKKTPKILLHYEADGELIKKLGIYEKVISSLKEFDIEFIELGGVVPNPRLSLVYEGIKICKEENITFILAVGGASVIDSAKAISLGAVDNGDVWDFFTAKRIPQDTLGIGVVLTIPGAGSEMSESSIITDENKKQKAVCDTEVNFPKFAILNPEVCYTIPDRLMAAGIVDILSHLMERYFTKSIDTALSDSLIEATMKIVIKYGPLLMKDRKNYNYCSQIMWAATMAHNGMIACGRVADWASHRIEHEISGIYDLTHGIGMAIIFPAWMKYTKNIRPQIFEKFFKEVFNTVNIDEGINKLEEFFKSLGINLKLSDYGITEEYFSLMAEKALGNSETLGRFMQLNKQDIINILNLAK
Experiment: X-ray crystallography, crystal soaked with NADH ([…] A)
Format: binding
Details: soak 1 min in 10 mM NADH, 2 mM Co2+, 25% glycerol; crystals grown in 0.1 M HEPES pH 7.5, 1.8 M ammonium phosphate; only the ADP part is seen and modelled as ADP, nicotinamide part disordered

NC(=O)C1=CN([C@@H]2O[C@H](COP(=O)(O)OP(=O)(O)OC[C@H]3O[C@@H](n4cnc5c(N)ncnc54)[C@H](O)[C@@H]3O)[C@@H](O)[C@H]2O)C=CC1 [NADH]
X-ray crystallography, crystal soaked with NADH (2.70 A): presence of the adenine and diphosphate groups of the NADH molecule
